Laboratory results reported in patent US10752626B2, “Iso-citrate dehydrogenase (IDH) inhibitor” (SHANGHAI METON PHARMACEUTICAL CO., LTD, priority 2016, dated 2020).

Target: IDH1 R132C (Homo sapiens (Human), UniProt O75874, R132C)
Assay: Biochemical assay for inhibition of mutant IDH1 R132C
Details: tested in triplet
Source text: The present disclosure provides a biochemical assay method for detecting the IDH inhibition and selectivity of the compounds by detecting IDH enzyme activity directly.
Wild-type IDH enzyme could convert NADP^+ to NADPH when it catalyzes the α-KG producing reaction. Mutant IDH enzyme could convert NADPH to NADP^+ when it catalyzes the D-2-HG producing reaction. So the activity of wild-type and mutant IDH1/2 could be measured by monitoring NADPH level change: in the reaction catalyzed by wild-type IDH1/2, the newly generated NADPH is utilized instantly by coupled diaphorase-resazurin reaction to generate resorufin which is fluorescent (at Excitation 544 nm, Emission 590 nm) and thus NADPH is monitored indirectly; while in the reaction catalyzed by mutant IDH1/2, NADPH is directly monitored as it is fluorescent (at Excitation 340 nm, Emission 460 nm). By monitoring the change of NADPH level in the reaction, the enzyme activity could be determined rapidly and efficiently, IC50 of a compound could also be assayed.
The test compounds were prepared into 50 mM stock solutions in DMSO and stored at −20° C. Each test compound stock was further diluted to obtain a 100× stock solution at a concentration of 200 μM, 100 μM, 50 μM, 25 μM, 12.5 jμM, 6.25 μM and 3.125 μM, respectively, for the final use on the day of test.
Inhibition of Mutant IDHJ (R132H or R132C):
Solution A was prepared by combining 1 M Tris-HCl pH7.5 (300 μL), 5 M NaCl (450 μL), 1 M MgCl2 (150 μL), 1 M DTT (15 μL), 20 mg/mL BSA (37.5 μL), 20 mM NADPH (20 μL), and 0.5 mM α-KG (40 μL), followed by adding deionized water to a final volume of 15 mL.
Reaction buffer was prepared by combining 1 M Tris-HCl pH 7.5 (200 μL), 5 M NaCl (300 μL), 1 M MgCl2 (100 μL), 1 M DTT (10 μL) and 20 mg/mL BSA (25 μL), followed by adding deionized water to a final volume of 10 mL.
Solution B was prepared by combining the reaction buffer (5 mL) and […] IDH1-R132H (5.21 μL) or 107 μM IDH1-R132C (4.67 μL).
148 μL Solution A was added into each sample well of a 96-well plate P1, and then 2 μL of the test compound solution at each concentration and 2 μL of DMSO (negative control/blank) were added into individual sample well respectively. 50 μL of Solution B was added into each of the sample wells having test compounds and one sample well having DMSO only, and 50 μL of reaction buffer was added into another sample well having DMSO only, respectively. P1 was put into BioTek Synergy H4 Microplate reader (BioTek Instruments Inc., Winooski, U.S.), and the program was set as follows: 37° C., shake plate 5 seconds, run kinetic mode, total detection time 20 min, detection intervals 40 seconds, detection mode fluorescence (at Excitation 340 nm, Emission 460 nm). The data were exported, the relative enzyme activity and the half-maximal inhibitory concentration (IC50) for the test compound were calculated. Relative enzyme activity was calculated as the absolute value of the slope of the Emission 460 reads of each well plotted against time (which represents the conversion rate of ca-KG to 2-HG through IDH1 modulated utilization of NADPH). The Dose-response curve was drawn and the IC50 was calculated via fitting. The IDH inhibition and selectivity of each test compound can be evaluated according to the effect of the compounds on the IDH enzyme activity.
The IDH inhibition activity of the compounds were assessed according to Test 5 of the Biological evaluation section. The test for mutant IDH1 R132H/R132C inhibition of each compound was carried out in triplet. For IDH1 R132H, the enzyme activity of exemplary Compounds 16, 21, 22, 23, 24 and 31 is plotted as a function of logarithm of the concentration of the compound in FIGS. 8A-8C, 9A-9C, 10A-10C, 11A-11C, 12A-12C and 13A-13C, respectively. […]

IDH1 R132C, sequence (O75874 whole entry R132C): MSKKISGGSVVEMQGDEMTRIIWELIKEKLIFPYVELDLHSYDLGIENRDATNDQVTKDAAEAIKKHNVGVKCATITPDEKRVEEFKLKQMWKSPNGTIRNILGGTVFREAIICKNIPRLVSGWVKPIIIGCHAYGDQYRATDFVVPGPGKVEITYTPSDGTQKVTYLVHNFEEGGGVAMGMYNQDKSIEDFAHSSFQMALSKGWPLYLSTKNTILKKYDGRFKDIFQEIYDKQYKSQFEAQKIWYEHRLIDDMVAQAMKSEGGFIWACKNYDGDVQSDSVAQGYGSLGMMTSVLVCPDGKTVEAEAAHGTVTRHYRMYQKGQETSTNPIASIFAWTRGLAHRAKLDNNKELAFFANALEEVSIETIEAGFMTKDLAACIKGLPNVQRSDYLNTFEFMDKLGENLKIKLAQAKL

Row | Compound | IC50 [µM]
1 | CCN1Cc2c(ccnc2N[C@@H](C)c2ccc(Oc3ccc(C)cc3)cc2)C1=O [Compound 16, (S)-2-ethyl-4-(1-(4-(p-tolyloxy)phenyl)ethylamino)-2,3-dihydro-1H-pyrrolo [3,4-c]pyridin-1-one] | < 1.5
2 | CCN1Cc2c(ccnc2N[C@@H](C)c2ccc(Oc3ccccc3)c(F)c2)C1=O [Compound 23, (S)-2-ethyl-4-((1-(3-fluoro-4-phenoxyphenyl)ethyl)amino)-2,3-dihydro-1H-pyrrolo[3,4-c]pyridin-1-one] | < 1.5
